Patent publication US20090298903A1, “USE OF TETRAMIC ACID DERIVATIVES FOR INSECT CONTROL” (priority 2006, published 2009)

What was measured:
Format in all cases: in vivo
Empoasca onukui = test: Example 15: tea plants against Empoasca onukui; details: larvae on shoots
Method: Plots approx. 4 m^2 in size which are planted with tea plants cv. “Yabukita” are treated, in three replications, against Empoasca onukui. The application is carried out with a knapsack sprayer which is operated with pressurized air. Here, the active substance Example (I-4) (150 OD) is tested against the commercial standard Admire (10 WP) at the specified application rates. The water application rate is 10 000 l/ha.
The test is evaluated 15 and 29 days after the treatment by scoring the destruction rate of the larvae in percent on the shoots.

Liriomyza sp. = test: Example 18: beans against Liriomyza sp.
Method: Plots approx. 10 m^2 in size which are planted with beans cv. “Lago Azul” are treated, in three replications, against Liriomyza sp. Here, the active substance Example (I-4) (150 OD) and the commercial standards Cyromazine (WP 75) and Abamectin (EC 018) are applied at the specified application rates, using a knapsack sprayer which is operated with pressurized gas. The water application rate is 400 and 500 l/ha., respectively. Three applications are carried out at intervals of in each case 7 days.
The destruction rate in percent is determined on in each case 10 leaves. 2, 7, 12, 18, 20 and 25 days after the first treatment, the following results are obtained: […]

sawflies Hoplocampa sp. = test: Example 31: apple trees against sawflies; details: 57 d after treatment, larvae on fruits, Thiacloprid (SC 480) 48 + deltamethrin 3.75 tank mix, (I-4) (150 OD) 48 g a.s./ha/m crown level
Method: Apple trees cv. “Holsteiner Cox” in plots approx. 20 m^2 in size are treated, in 4 replications, against sawflies Hoplocampa sp. Here, the active substance Example (I-4) (150 OD) at the specified application rate is tested against a tank mix of the commercial standards Thiacloprid (SC 480) and Deltamethrin-liquid in the specified application rates. The application is carried out with a knapsack sprayer. Here, the treatment is effected with a water application rate of 500 l/ha/m crown level.
The test is evaluated 57 days after the treatment by scoring the destruction of the larvae on the fruits with the aid of the Abbott method.

Caliothrips phaseoli = test: Example 3: courgettes against Caliothrips phaseoli; details: 8 d after treatment, nymphs on 5 leaves, Endosulfan (350 EC) 525, (I-4) (240 SC + 0.1% rapeseed oil methyl ester) 72 g a.s./ha
Method: Plots approx. 22 m^2 in size which are planted with courgettes cv. “Italiana negra” are treated, in three replications, against Caliothrips phaseoli. The application is effected with a motor-driven knapsack sprayer. Here, the active substance Example (I-4) (240 SC), in a tank mix together with 0.1% a.s. rapeseed oil methyl ester (500 EW) and the commercial standard endosulfan (350 EC), is tested at the specified application rates. The water application rate is approx. 510 l/ha.
The test is evaluated 8 days after the treatment by scoring the destruction of the animals (nymphs) on 5 leaves.

Ceratitis capitata = test: Example 20: peach trees against Ceratitis capitata; details: animals on fruits
Method: Peach trees cv. “Oom Sarel” which are approximately 10 years old are treated, in three replications, against Ceratitis capitata. The application is carried out with a high-pressure sprayer or a knapsack sprayer which is operated with pressurized air. Here, the active substance Example (I-4) (150 OD) and the commercial standard Fenthion (500 EC) are tested at the specified application rates. The water application rate is 2500 l/ha. Three applications are carried out at an interval of 7 and 19 days, respectively.
The test is evaluated 9 and 16 days after treatment 3 by scoring the destruction rate of the animals on the fruits with the aid of the Abbott formula.

Rhagoletis cerasi = test: Example 21: cherry trees against Rhagoletis cerasi; details: 23 d after treatment 2, larvae on fruits, Dimethoate (400 EC) 200, (I-4) (150 OD) 75 g a.s./ha/m crown level
Method: Cherry trees cv. “Van” which are approximately 26 years old are treated, in three replications, against Rhagoletis cerasi. The application is carried out with an atomizer. Here, the active substance Example (I-4) (150 OD) and the commercial standard dimethoate (400 EC) are applied at the specified application rates. Two applications are carried out at an interval of 6 days with a water application rate of 500 l/ha/m crown level.
The test is evaluated 23 days after treatment 2 by scoring the destruction rates of the animals (larvae) on the fruits with the aid of the Abbott formula.

Carpocapsa pomonella = test: Example 29: apple trees against Carpocapsa pomonella, fruit damage; details: application rate printed as g a.s./ha: Chlorpyrifos-methyl (25 WP) 0.1, (I-4) (240 SC + 0.1% Steffes Mero) 0.012
Method: Approx. 15-year-old apple trees cv. “Golden Delicious” are treated, in four replications, against Carpocapsa pomonella. The application is carried out with an atomizer. Here, the active substance Example (I-4) (240 SC) in a tank mix together with 0.1% a.s. of the adjuvant Steffes Mero (rapeseed oil methyl ester) (733 1R) and the commercial standard Chlorpyrifos-methyl (25 WP) are tested at the specified application rates. The water application rate is 1052 l/ha. Two applications are carried out at an interval of 13 days.
The test is evaluated 32 days after treatment 2 by scoring the fruit damage with the aid of the Abbott formula.

Dasineura pyri = test: Example 19b): pear trees against Dasineura pyri; details: 9 d after treatment 2, larvae in rolled leaves
Method: Fully-grown pear trees cv. “Conference” of crown height approx. 3.5 m are treated, in four replications, against Dasineura pyri. Here, the active substance Example (I-4) is tested as (150 OD) and (240 SC) together with 0.1% a.s. rapeseed oil methyl ester (Mero 733 1R) in a tank mix at the specified application rate against the commercial standard Endosulfan (350 EC) at the specified application rate. The application is carried out with a spray diffuser. Here, the treatment is effected with a water application rate of 1000 l/ha/m crown level. Two applications are carried out at an interval of 7 days.
The test is evaluated 9 days after treatment 2 by scoring the destruction rate of the larvae in the rolled leaves, using the Abbott method.

## CCOC(=O)OC1=C(c2cc(C)ccc2C)C(=O)N[C@]12CC[C@@H](OC)CC2 [Example (I-4)]
Empoasca onukui; 15 d after treatment, Admire (10 WP) 0.005 % a.s., (I-4) (150 OD) 0.01 % a.s.
  Efficacy (% Abbott) 15 d: 73 % Abbott
Empoasca onukui; 29 d after treatment, Admire 0.005 % a.s., (I-4) 0.01 % a.s.
  Efficacy (% Abbott) 29 d: 78.8 % Abbott
Liriomyza sp.; 2 d after first treatment, 10 leaves, Cyromazine (WP 75) 130, (I-4) (150 OD) 100, Abamectin (EC 018) 14.4 g a.s./ha, three applications, 7-day intervals
  Efficacy (% Abbott) 2 d: 40 % Abbott
Liriomyza sp.; 7 d after first treatment, Cyromazine 130, (I-4) 100, Abamectin 14.4 g a.s./ha
  Efficacy (% Abbott) 7 d: 69 % Abbott
Liriomyza sp.; 12 d after first treatment, Cyromazine 130, (I-4) 100, Abamectin 14.4 g a.s./ha
  Efficacy (% Abbott) 12 d: 30 % Abbott
Liriomyza sp.; 18 d after first treatment, Cyromazine 130, (I-4) 100, Abamectin 14.4 g a.s./ha
  Efficacy (% Abbott) 18 d: 43 % Abbott
Liriomyza sp.; 20 d after first treatment, Cyromazine 130, (I-4) 100, Abamectin 14.4 g a.s./ha
  Efficacy (% Abbott) 20 d: 57 % Abbott
Liriomyza sp.; 25 d after first treatment, Cyromazine 130, (I-4) 100, Abamectin 14.4 g a.s./ha
  Efficacy (% Abbott) 25 d: 46 % Abbott
Sawflies Hoplocampa sp.
  Efficacy (%) Abbott 57 d: 98%
Caliothrips phaseoli
  Efficacy (% Abbott) 8 d: 71.3 % Abbott
Ceratitis capitata; Fenthion 1700, (I-4) 100 g a.s./ha
  Efficacy (% Abbott) 16 d after treatment 3: 100 % Abbott
Ceratitis capitata; Fenthion (500 EC) 1700, (I-4) (150 OD) 100 g a.s./ha
  Efficacy (% Abbott) 9 d after treatment 3: 86.7 % Abbott
Rhagoletis cerasi
  Efficacy (% Abbott) 23 d: 100 % Abbott
Carpocapsa pomonella
  Efficacy (% Abbott) 32 d after treatment 2: 73.7 % Abbott
Dasineura pyri; (I-4) as 150 OD, 150 g a.s./ha/m crown level
  Efficacy (% Abbott) 9 d: 100 % Abbott
Dasineura pyri; Endosulfan (350 EC) 472.5, (I-4) as 240 SC + Mero (0.1% rapeseed oil methyl ester) 120 g a.s./ha/m crown level
  Efficacy (% Abbott) 9 d: 94.6 % Abbott
